The values that follow come from patent US4891361A, “Method of minimizing erythema and elastosis” (Sansho Seiyaku Co., Ltd., priority 1985, dated 1990).

Data set [1] deals with erythema. The experiment in a line: Animal test: severity of UV-induced erythema on rat back. The class given is in vivo, female Spraguex-Dawley rats. Further details: key: -: No erythema; ±: Very slight erythema; +: Slight erythema; ++: Medium erythema; +++: Severe erythema. The conditions noted are these: Test zone, 1% suspension. From the text: (§1) Test Method Ten heads of female Spraguex-Dawley rats of 4-week age were used for the test. The back of each rat was divided into two zones along its center line; one (test zone) was coated with a 1% suspension of kojic acid in a 1% aqueous solution of carboxymethylcellulose, and the other (control zone) was coated with a 1% aqueous solution of carboxymethylcellulose. The coated solution was washed off with hot water one hour later, and each zone was then irradiated with ultraviolet rays for 20 minutes using four UV tubes (Toshiba, Model 20S;E30) placed 62 cm away from the back of each rat. This operation was performed three times a week (on Monday, Wednesday and Friday) and continued over a period of six months. The drug solution and control solution were applied every day (even on days when UV irradiation was omitted). After that, the coating operation alone was continued for an additional six months. Severity of erythema developed on each zone was observed immediately after the start of the test, and 2, 4, 6, 8, 10 and 12 months later.

In data set [2] the test system is mice. To be noted: mice (both male and female), orally administered; cited from earlier work.
Data set [3] deals with elastosis. Nature of the data set: Animal test: UV-induced elastosis, elastic fiber histology (Hematoxylin-Eosin, Weigert and Orcein-Giemsa staining). To be noted: Test Zone, 1% suspension, total 10, end of the test (12 months). It is filed as in vivo, female Spraguex-Dawley rats.
Source text: as §1, with “At” for “Severity of erythema developed on each zone was observed immediately after”, “end” for “start”, “test, tissues were excised from the test” for “test,”, “control zones of each rat, paraffin sections of the skin, prepared from the tissues taken out, were subjected to a Hematoxylin-Eosin, Weigert” for “2, 4, 6, 8, 10”, “Orcein-Giemsa staining process, and the conditions of the elastic fiber were observed.” for “12 months later.”

The subject of data set [4] is mouse melanoma B16 cells. Nature of the data set: Color fading test of cultured pigment cells (mouse melanoma B16 cells). It is filed as cell-based. The protocol: Besides the effects described above, the drugs of this invention also have powerful action to inhibit the formation of melanin. To be more specific, the drugs are very effective in inhibiting the formation of dopachrome (a red pigment). […] A color fading test of cultured pigment cells was carried out using kojic acid and kojic acid/β-cyclodextrin inclusion complex.
B: 20% solution of kojic acid/β-cyclodextrin inclusion complex
Mouse melanoma B16 cells (hereinafter referred to simply as "B16 cells") (each dish containing […] cells) were grown in Eagle's MEM medium (with 10% fetal calf serum added thereto), (a) in the presence of kojic acid at a concentration of 2.5 mM (Test zone A), (b) in the presence of kojic acid/β-cyclodextrin inclusion complex at a concentration of 2.5 mM (as kojic acid) (Test zone B), and (c) in the absence of any drug (Test zone C), at 37° C. for six days in an atmosphere consisting of 5% CO2 and 95% air. At the end of incubation, each culture was treated with trypsin, then centrifuged at 2000rpm for five minutes to prepare cell pellets, and the degree of blackness was visually compared.

For data set [5], the system named is rats. The conditions noted are these: rats (both male and female), orally administered; cited from earlier work.

For orientation: LD50 means the dose expected to kill half of the subjects tested.

As to `O=c1cc(CO)occ1O` [Kojic acid], the Severity of erythema result in data set [1] (Coating Alone, month 8) is given as “-”; in data set [1] (Coating Alone, month 10), “-”; in data set [1] (Coating Alone, month 12), “-”; in data set [1] (Irradiation Period, month 0 (immediately after the start)) it was “-”; in data set [1] (Irradiation Period, month 2) it was “+”; in data set [1] (Irradiation Period, month 4), “++”. For the same molecule, the Severity of erythema entry in data set [1] (Irradiation Period, month 6) is recorded as “++”. The LD50 in data set [2] and in data set [5] was 2500 to 3500 mg/kg each time. Further, in data set [3], the “Number of rats with evaluation + (Slight elastosis)” value is reported as 3. Further, in data set [3], the “Number of rats with evaluation ++ (Medium elastosis)” value is 1. The “Number of rats with evaluation +++ (Severe elastosis)” value in data set [3] stood at 0. Moreover, the “Number of rats with evaluation - (No elastosis)” value in data set [3] is listed as 3. The “Number of rats with evaluation ± (Very slight elastosis)” value in data set [3] was 3. For the same molecule, in data set [4] (2.5 mM (as kojic acid), six days, 37° C., compared with Test zone C (control)), the “Color fading (degree of blackness of cell pellet, visual)” value is recorded as “Considerable color fading”. The “Inhibition of the formation of melanin (conclusion from color fading test)” value in data set [4] (mouse melanoma B16 cells) is given as “outstanding effect”.
